From the CheMixHub viscosity set
± gives the uncertainty stated by the source.

Experiment: xn = mol fraction of the nth substance listed

CC(=O)CC(C)C + CCCCCCCCO
viscosity [mPa·s], 100 kPa
Settings	x1 = 0.0818	x1 = 0.1616	x1 = 0.2492	x1 = 0.3517	x1 = 0.4411	x1 = 0.5629	x1 = 0.6505	x1 = 0.7501	x1 = 0.8518	x1 = 0.9519
293.15 K	7.68 ± 0.62	6.48 ± 0.52	5.45 ± 0.44	4.46 ± 0.36	3.71 ± 0.3	2.87 ± 0.23	2.32 ± 0.19	1.72 ± 0.14	1.2 ± 0.1	0.76 ± 0.06
303.15 K	5.45 ± 0.44	4.69 ± 0.38	3.97 ± 0.32	3.27 ± 0.26	2.78 ± 0.22	2.19 ± 0.18	1.8 ± 0.15	1.37 ± 0.11	0.97 ± 0.08	0.65 ± 0.05
313.15 K	4 ± 0.32	3.46 ± 0.28	2.97 ± 0.24	2.47 ± 0.2	2.1 ± 0.17	1.67 ± 0.13	1.4 ± 0.11	1.11 ± 0.09	0.82 ± 0.07	0.57 ± 0.05
323.15 K	3 ± 0.24	2.63 ± 0.21	2.28 ± 0.18	1.92 ± 0.15	1.65 ± 0.13	1.34 ± 0.11	1.14 ± 0.09	0.93 ± 0.08	0.71 ± 0.06	0.5 ± 0.04

CCOCC + Cc1ccccc1
viscosity [mPa·s], 101 kPa
Settings	293.15 K	298.15 K	303.15 K	308.15 K
x2 = 0.21	0.3 ± 0.008	0.29 ± 0.008	0.281 ± 0.008	0.272 ± 0.007
x2 = 0.45	0.379 ± 0.01	0.36 ± 0.01	0.345 ± 0.009	0.331 ± 0.009
x2 = 0.71	0.468 ± 0.012	0.445 ± 0.012	0.419 ± 0.011	0.404 ± 0.011

CCOCC + O
298.15 K, 101 kPa
Settings	viscosity [mPa·s]
x1 = 0.00334	0.9366 ± 0.0045
x1 = 0.00369	1.053 ± 0.009
x1 = 0.00509	0.9597 ± 0.0045
x1 = 0.00551	1.073 ± 0.009
x1 = 0.00769	0.9959 ± 0.0046
x1 = 0.00866	1.107 ± 0.01
x1 = 0.00871	1.01 ± 0.0046
x1 = 0.0107	1.132 ± 0.01
x1 = 0.0113	1.138 ± 0.01
x1 = 0.0149	1.088 ± 0.0046
x1 = 0.973	0.27 ± 0.007
x2 = 0.0179	0.269 ± 0.007

CCOCC + CCO
298.15 K, 101 kPa
Settings	viscosity [mPa·s]
x1 = 0.1577	0.741 ± 0.0076
x1 = 0.3593	0.478 ± 0.005
x1 = 0.4569	0.4 ± 0.0042
x1 = 0.5301	0.359 ± 0.0037
x1 = 0.6268	0.315 ± 0.0033
x1 = 0.6925	0.29 ± 0.003
x1 = 0.7978	0.264 ± 0.0028

O=C1CCCCC1 + CCCCCCCCC
viscosity [mPa·s], 101.33 kPa
Settings	x1 = 0.0999	x1 = 0.1981	x1 = 0.3012	x1 = 0.4032	x1 = 0.4987	x1 = 0.6007	x1 = 0.6942	x1 = 0.7981	x1 = 0.9006
298.15 K	0.683 ± 0.005	0.726 ± 0.005	0.772 ± 0.005	0.833 ± 0.006	0.909 ± 0.006	1.022 ± 0.007	1.134 ± 0.008	1.321 ± 0.009	1.544 ± 0.013
303.15 K	0.639 ± 0.005	0.675 ± 0.005	0.718 ± 0.005	0.775 ± 0.005	0.842 ± 0.006	0.936 ± 0.006	1.043 ± 0.007	1.21 ± 0.008	1.41 ± 0.009
308.15 K	0.6 ± 0.004	0.632 ± 0.005	0.672 ± 0.005	0.723 ± 0.005	0.784 ± 0.005	0.869 ± 0.006	0.967 ± 0.007	1.116 ± 0.007	1.294 ± 0.008

CCCCCCO + CCO
Settings	viscosity [mPa·s]
298.15 K, 101.33 kPa, x2 = 0.1094	4.001 ± 0.037
298.15 K, 101.33 kPa, x2 = 0.2099	3.537 ± 0.034
298.15 K, 101.33 kPa, x2 = 0.3973	2.828 ± 0.029
298.15 K, 101.33 kPa, x2 = 0.5015	2.484 ± 0.027
298.15 K, 101.33 kPa, x2 = 0.5903	2.214 ± 0.025
298.15 K, 101.33 kPa, x2 = 0.6925	1.894 ± 0.023
298.15 K, 101.33 kPa, x2 = 0.8012	1.574 ± 0.021
298.15 K, 101.33 kPa, x2 = 0.899	1.305 ± 0.019
303.15 K, 101 kPa, x2 = 0.1433	3.364 ± 0.086
303.15 K, 101 kPa, x2 = 0.2814	2.887 ± 0.074
303.15 K, 101 kPa, x2 = 0.487	2.241 ± 0.058
303.15 K, 101 kPa, x2 = 0.6448	1.807 ± 0.046
303.15 K, 101 kPa, x2 = 0.7691	1.509 ± 0.039
303.15 K, 101 kPa, x2 = 0.8692	1.28 ± 0.033
303.15 K, 101 kPa, x2 = 0.9524	1.093 ± 0.028

CCOCC + CO
101 kPa
Settings	viscosity [mPa·s]
298.15 K, x1 = 0.115	0.4734 ± 0.0049
298.15 K, x1 = 0.1893	0.4296 ± 0.0044
298.15 K, x1 = 0.2803	0.3846 ± 0.0039
298.15 K, x1 = 0.3957	0.3378 ± 0.0034
298.15 K, x1 = 0.5399	0.2953 ± 0.003
298.15 K, x1 = 0.7319	0.2553 ± 0.0026
303.16 K, x1 = 0.04	0.4893 ± 0.071
303.16 K, x1 = 0.09	0.4472 ± 0.066
303.16 K, x1 = 0.13	0.4312 ± 0.064
303.16 K, x1 = 0.2	0.3881 ± 0.06
303.16 K, x1 = 0.27	0.3392 ± 0.054
303.16 K, x1 = 0.37	0.2921 ± 0.049
303.16 K, x1 = 0.51	0.2772 ± 0.047
303.16 K, x1 = 0.67	0.2511 ± 0.044
303.16 K, x1 = 0.85	0.2328 ± 0.042

CCCCCCO + O
viscosity [mPa·s], 101 kPa
Settings	298.15 K	308.15 K	318.15 K
x2 = 0.0013	–	–	2.573 ± 0.023
x2 = 0.0042	4.567 ± 0.04	3.388 ± 0.03	–
x2 = 0.0554	–	–	2.513 ± 0.022
x2 = 0.0593	4.427 ± 0.038	3.295 ± 0.029	–
x2 = 0.1019	–	–	2.475 ± 0.022
x2 = 0.1079	4.355 ± 0.037	3.237 ± 0.028	–
x2 = 0.1483	4.324 ± 0.036	3.209 ± 0.027	2.447 ± 0.021
x2 = 0.1875	–	–	2.432 ± 0.021
x2 = 0.1933	4.314 ± 0.036	3.193 ± 0.027	–
x2 = 0.2248	–	–	2.425 ± 0.02
x2 = 0.2367	4.322 ± 0.035	3.192 ± 0.026	–
x2 = 0.2673	4.341 ± 0.035	3.198 ± 0.026	2.427 ± 0.02
x2 = 0.2981	4.369 ± 0.035	3.213 ± 0.026	–
x2 = 0.3116	–	–	2.439 ± 0.02

O=C1CCCCC1 + CC(C)CO
298.15 K, 101 kPa
Settings	viscosity [mPa·s]
x1 = 0.1012	2.58 ± 0.03
x1 = 0.2016	2.15 ± 0.03
x1 = 0.299	1.9 ± 0.02
x1 = 0.3994	1.77 ± 0.02
x1 = 0.5008	1.72 ± 0.02
x1 = 0.5978	1.7 ± 0.02
x1 = 0.6982	1.69 ± 0.02
x1 = 0.7981	1.71 ± 0.02
x1 = 0.8985	1.77 ± 0.02

CCCCCC(=O)O + CC(C)[C@@H]1CC[C@@H](C)C[C@H]1O
Settings	viscosity [mPa·s]
298 K, 101 kPa, x2 = 0.333	8.9 ± 0.4

O=C1CCCCC1 + CCCCCCC
viscosity [mPa·s]
Settings	298.15 K	303.15 K	308.15 K
101 kPa, x1 = 0.1125	0.437 ± 0.008	–	–
101 kPa, x1 = 0.2097	0.484 ± 0.009	–	–
101 kPa, x1 = 0.3055	0.539 ± 0.01	–	–
101 kPa, x1 = 0.4144	0.616 ± 0.011	–	–
101 kPa, x1 = 0.5033	0.702 ± 0.012	–	–
101 kPa, x1 = 0.5928	0.803 ± 0.014	–	–
101 kPa, x1 = 0.7027	0.97 ± 0.017	–	–
101 kPa, x1 = 0.8091	1.184 ± 0.02	–	–
101 kPa, x1 = 0.8686	1.34 ± 0.022	–	–
101.33 kPa, x1 = 0.1046	0.427 ± 0.003	0.403 ± 0.003	0.384 ± 0.003
101.33 kPa, x1 = 0.2024	0.472 ± 0.004	0.445 ± 0.004	0.421 ± 0.003
101.33 kPa, x1 = 0.3035	0.529 ± 0.004	0.497 ± 0.004	0.47 ± 0.004
101.33 kPa, x1 = 0.4016	0.606 ± 0.005	0.564 ± 0.004	0.53 ± 0.004
101.33 kPa, x1 = 0.5025	0.69 ± 0.005	0.644 ± 0.005	0.605 ± 0.004
101.33 kPa, x1 = 0.5993	0.805 ± 0.006	0.75 ± 0.005	0.701 ± 0.005
101.33 kPa, x1 = 0.7026	0.96 ± 0.007	0.893 ± 0.006	0.828 ± 0.006
101.33 kPa, x1 = 0.8009	1.178 ± 0.008	1.085 ± 0.007	1.004 ± 0.007
101.33 kPa, x1 = 0.9009	1.474 ± 0.013	1.349 ± 0.009	1.235 ± 0.008

O=C1CCCCC1 + Cc1ccc(C)cc1
viscosity [mPa·s], 101.33 kPa
Settings	x1 = 0.1013	x1 = 0.2048	x1 = 0.3016	x1 = 0.4023	x1 = 0.5186	x1 = 0.6081	x1 = 0.7034	x1 = 0.7967	x1 = 0.9005
298.15 K	0.655 ± 0.005	0.702 ± 0.005	0.762 ± 0.005	0.834 ± 0.006	0.938 ± 0.006	1.04 ± 0.007	1.194 ± 0.008	1.35 ± 0.008	1.617 ± 0.01
303.15 K	0.612 ± 0.004	0.657 ± 0.005	0.711 ± 0.005	0.777 ± 0.005	0.871 ± 0.006	0.965 ± 0.006	1.088 ± 0.007	1.237 ± 0.008	1.481 ± 0.009
308.15 K	0.574 ± 0.004	0.618 ± 0.004	0.667 ± 0.005	0.728 ± 0.005	0.819 ± 0.005	0.897 ± 0.006	1.01 ± 0.007	1.144 ± 0.007	1.354 ± 0.008
